“And” between values parts separate entries of the source, which are not always exact repeats. Equal values may be shown once.
How the values were obtained:
R2509C mice = assay: Muscle force in vivo, grip force test (4-grips test), R2509C mice; set-up: species or system mouse; conditions: for grip force (sheet Fig S6c): single mice
Protocol: Muscle force was measured in vivo by grip-force test. […] The force was measured before and 10 and 60 min after i.p. injection of saline or Cpd1 (10 mg/kg). Mice (8- to 12-week old) were gently held by the tails and allowed them to grasp the horizontally positioned metal bar of the Grip Strength Meter (MK308M, Muromachi Kikai, Tokyo, Japan) with their forelimbs and hindlimbs (4-grips test). Each mouse performed four trials for force measurement at every time point. The highest force value applied to the metal bar was recorded and normalized by body weight.

[1] = system: FDB muscle fibers from R163C mice; assay: In vitro [Ca2+]i by Ca2+-selective microelectrode in FDB fibers from R163C mice; type: cell-based, mouse; conditions: 0-5 µM
Protocol: (§1) WT and mutant mice (R2509C, 8- to 20-week old; R163C, 12- to 16-week old, and G2435R, 12- to 16-week old) were euthanized and flexor digitorum brevis (FDB) muscles were dissected and incubated with 2 mg/mL collagenase (Worthington Biochemical Co., NJ, USA) in the HEPES-Krebs solution containing 2 mg/mL bovine serum albumin for 2–3 h at 37 °C. Following incubation, single cells were separated by gentle trituration in collagenase-free HEPES-Krebs solution. Isolated single FDB cells were seeded on a laminin-coated cover slip of the 35 mm glass-bottom dish or on 96 well plate coated with Cultrex basement membrane matrix (Trevigen, Minneapolis, USA).
Ca^2+ ion specific microelectrode recordings were performed as follows[38],[50]. For in vivo measurements, WT and heterozygous R163C mice (12- to 16-week old) were anesthetized by i.p. injection of 100 mg/kg ketamine and 5 mg/kg xylazine and placed on a 37 °C heating pad and their temperature was monitored. The vastus lateralis was exposed surgically after which its muscle fibers were impaled with double-barreled Ca^2+-selective microelectrode, and the potentials were recorded via a high-impedance amplifier (WPI Duo 773 electrometer; WPI, Sarasota, FL, USA). […] Muscle fibers were impaled with the microelectrodes as above and [Ca^2+]i was determined in the presence of varying (0–5 µM) concentrations of Cpd1.

G2435R FDB fibers = assay: Mn2+ quench assay in FDB fibers from G2435R mice; type: cell-based, mouse; conditions: 10 µM
Protocol: as §1
Assays were carried out as follows[38]: 5 µM of fura2-AM dye (Thermo Fisher Scientific) dissolved in mammalian Ringer solution (133 mM NaCl, 5 mM KCl, 1 mM MgSO4, 25 mM HEPES, 5.5 mM glucose, 2 mM CaCl2, pH 7.4) was loaded into dissociated WT and homozygous G2435R FDB fibers in 96 well plates for 30 min at 37 °C, 5% CO2. […] Fura-2 was illuminated at its isosbestic wavelength (360 nm) with the X-Cite 120 metal halide light source (Exfo, Ontario, Canada) and fluorescence emission at 510 nm was recorded using a 10 ×0.3na objective. […] The fluorescence signals were plotted as fluorescence arbitrary units (f.a.u.) over time. […]

[2] = Pharmacokinetics after i.p. administration in mice; type: in vivo, mouse; conditions: 8-times injection of 1 mg/kg at 10 min intervals
RyR1 channel = system: RyR1 channel; set-up: method as in PMID 31299492; conditions: HEK293 cell-based assay; read-out: IC50 for inhibiting the RyR1 channel; cited from earlier work
[3] = Metabolic stability in mouse liver microsomes; type: in vitro ADME; conditions: 0.5 μM, NADPH
Protocol: Cpd1 (final concentration was 0.5 μM) was incubated with human or mouse hepatic microsomes (XenoTech Ltd, Kansas City, KS) with nicotinamide adenine dinucleotide phosphate (NADPH) for 10 and 60 min at 37 °C. Each reaction was stopped by acetonitrile, and the value of unchanged compound 1 was determined by quantitating using LC–MS/MS, and the metabolic stability was evaluated as a remaining rate (%).

WT mice = assay: Muscle force in vivo, grip force test (4-grips test), WT mice; set-up: species or system mouse; conditions: for grip force (sheet Fig S6b): single mice; for grip force normalized by body weight: 8-times injection of 1 mg/kg at 10 min intervals, 1 mg/kg
[4] = Pre (before administration), Cpd1 group

CCCCCCCCn1cc(C(=O)O)c(=O)c2cc3c(cc21)OCO3 [Cpd1, 6,7-(methylenedioxy)-1-octyl-4-quinolone-3-carboxylic acid]
grip force (sheet Fig S6c) (R2509C mice; 10 min after Cpd1): 9.25 and 10 and 6.39 and 8.47 and 6.45 and 7.53
grip force (sheet Fig S6c) (R2509C mice; 60 min after Cpd1): 10.04 and 12.86 and 9.79 and 9.69 and 9.84 and 10.9
grip force (sheet Fig S6c) (R2509C mice; [4]): 10.64 and 13.19 and 10.54 and 8.58 and 8.65 and 10.63
muscle weakness in grip strength test (R2509C mice; R2509C mice, after administration of Cpd1): muscle weakness was also observed in 10 min but recovered within 60 min
effect on [Ca2+]i in quiescent fibers [1]: reduced [Ca^2+]i in R163C fibers in a dose-dependent manner to the level of WT fibers
Mn2+ quench rate (G2435R FDB fibers): the same as that in untreated WT fibers
plasma concentration ([2]; female, 10 min): 0.07 µg/mL and 0.09 µg/mL
plasma concentration ([2]; male, 5 min): 0.61 µg/mL and 0.36 µg/mL
IC50 (RyR1 channel): 0.012 µM
remaining rate (residual Cpd1, 0 min = 100%) ([3]; 10 min): 23% and 26% and 28% and 19% and 18%
remaining rate (residual Cpd1, 0 min = 100%) ([3]; 60 min): 3% and 2% and 4%
grip force (sheet Fig S6b) (WT mice; 10 min after Cpd1): 10.7 and 8.11 and 9.35 and 11.39
grip force (sheet Fig S6b) (WT mice; 60 min after Cpd1): 11.25 and 11.53 and 12.05 and 13.94
grip force (sheet Fig S6b) (WT mice; [4]): 12.3 and 12.63 and 13.75 and 13.44
reduction of muscle strength (WT mice; WT mice, 10 min after 10 mg/kg): 15%
recovery of muscle strength deficit (WT mice; WT mice, 60 min after 10 mg/kg): almost completely recovered
grip force normalized by body weight (WT mice; female WT, 10 min): 6.55 g/g BW and 8.77 g/g BW and 8.32 g/g BW
grip force normalized by body weight (WT mice; female WT, 30 min): 6.59 g/g BW and 8.18 g/g BW and 9 g/g BW
grip force normalized by body weight (WT mice; female WT, 60 min): 8.64 g/g BW and 8.82 g/g BW and 9.45 g/g BW
grip force normalized by body weight (WT mice; female WT, 120 min): 10.05 g/g BW and 9.64 g/g BW and 12.23 g/g BW
grip force normalized by body weight (WT mice; female WT, Pre): 9.86 g/g BW and 10.18 g/g BW and 11.36 g/g BW
grip force normalized by body weight (WT mice; male WT, 10 min): 6.56 g/g BW and 4.67 g/g BW and 5.04 g/g BW
grip force normalized by body weight (WT mice; male WT, 30 min): 7.19 g/g BW and 7.63 g/g BW and 7.37 g/g BW
grip force normalized by body weight (WT mice; male WT, 60 min): 8.81 g/g BW and 9.89 g/g BW and 10.81 g/g BW
grip force normalized by body weight (WT mice; male WT, 120 min): 9.48 g/g BW and 8.74 g/g BW and 9.44 g/g BW
grip force normalized by body weight (WT mice; male WT, Pre): 9.33 g/g BW and 9.22 g/g BW and 8.63 g/g BW
